SMILES strings stand for the structures.

In patent publication US8841337B2, “Compounds useful as inhibitors of ATR kinase” (Vertex Pharmaceuticals Incorporated, priority 2011, dated 2014) one finds Ki data, which are given here for 2 compounds.

The assay has as its target T1, full-length ATR (Homo sapiens, UniProt Q13535).
T1 construct: Assays were carried out at 25° C. in the presence of 5 nM full-length ATR
The experiment in a line: ATR Inhibition Assay (radioactive-phosphate incorporation). It counts as biochemical. Particulars: Ki(app); 5 nM full-length ATR, 10 μM [γ-33P]ATP, 800 μM target peptide, 25° C. Here is the method:
Compounds were screened for their ability to inhibit ATR kinase using a radioactive-phosphate incorporation assay. Assays were carried out in a mixture of 50 mM Tris/HCl (pH 7.5), 10 mM MgCl2 and 1 mM DTT. Final substrate concentrations were 10 μM [γ-33P]ATP (3 mCi 33P ATP/mmol ATP, Perkin Elmer) and 800 μM target peptide (ASELPASQPQPFSAKKK).
Assays were carried out at 25° C. in the presence of 5 nM full-length ATR. An assay stock buffer solution was prepared containing all of the reagents listed above, with the exception of ATP and the test compound of interest. 13.5 μL of the stock solution was placed in a 96 well plate followed by addition of 2 μL of DMSO stock containing serial dilutions of the test compound (typically starting from a final concentration of 15 μM with 3-fold serial dilutions) in duplicate (final DMSO concentration 7%). The plate was pre-incubated for 10 minutes at 25° C. and the reaction initiated by addition of 15 μL [γ-33P]ATP (final concentration 10 μM).
The reaction was stopped after […] by the addition of 30 μL 0.1M phosphoric acid containing 2 mM ATP. […]
After removing mean background values for all of the data points, Ki(app) data were calculated from non-linear regression analysis of the initial rate data using the Prism software package (GraphPad Prism version 3.0cx for Macintosh, GraphPad Software, San Diego Calif., USA).

T1 sequence (Q13535 whole entry): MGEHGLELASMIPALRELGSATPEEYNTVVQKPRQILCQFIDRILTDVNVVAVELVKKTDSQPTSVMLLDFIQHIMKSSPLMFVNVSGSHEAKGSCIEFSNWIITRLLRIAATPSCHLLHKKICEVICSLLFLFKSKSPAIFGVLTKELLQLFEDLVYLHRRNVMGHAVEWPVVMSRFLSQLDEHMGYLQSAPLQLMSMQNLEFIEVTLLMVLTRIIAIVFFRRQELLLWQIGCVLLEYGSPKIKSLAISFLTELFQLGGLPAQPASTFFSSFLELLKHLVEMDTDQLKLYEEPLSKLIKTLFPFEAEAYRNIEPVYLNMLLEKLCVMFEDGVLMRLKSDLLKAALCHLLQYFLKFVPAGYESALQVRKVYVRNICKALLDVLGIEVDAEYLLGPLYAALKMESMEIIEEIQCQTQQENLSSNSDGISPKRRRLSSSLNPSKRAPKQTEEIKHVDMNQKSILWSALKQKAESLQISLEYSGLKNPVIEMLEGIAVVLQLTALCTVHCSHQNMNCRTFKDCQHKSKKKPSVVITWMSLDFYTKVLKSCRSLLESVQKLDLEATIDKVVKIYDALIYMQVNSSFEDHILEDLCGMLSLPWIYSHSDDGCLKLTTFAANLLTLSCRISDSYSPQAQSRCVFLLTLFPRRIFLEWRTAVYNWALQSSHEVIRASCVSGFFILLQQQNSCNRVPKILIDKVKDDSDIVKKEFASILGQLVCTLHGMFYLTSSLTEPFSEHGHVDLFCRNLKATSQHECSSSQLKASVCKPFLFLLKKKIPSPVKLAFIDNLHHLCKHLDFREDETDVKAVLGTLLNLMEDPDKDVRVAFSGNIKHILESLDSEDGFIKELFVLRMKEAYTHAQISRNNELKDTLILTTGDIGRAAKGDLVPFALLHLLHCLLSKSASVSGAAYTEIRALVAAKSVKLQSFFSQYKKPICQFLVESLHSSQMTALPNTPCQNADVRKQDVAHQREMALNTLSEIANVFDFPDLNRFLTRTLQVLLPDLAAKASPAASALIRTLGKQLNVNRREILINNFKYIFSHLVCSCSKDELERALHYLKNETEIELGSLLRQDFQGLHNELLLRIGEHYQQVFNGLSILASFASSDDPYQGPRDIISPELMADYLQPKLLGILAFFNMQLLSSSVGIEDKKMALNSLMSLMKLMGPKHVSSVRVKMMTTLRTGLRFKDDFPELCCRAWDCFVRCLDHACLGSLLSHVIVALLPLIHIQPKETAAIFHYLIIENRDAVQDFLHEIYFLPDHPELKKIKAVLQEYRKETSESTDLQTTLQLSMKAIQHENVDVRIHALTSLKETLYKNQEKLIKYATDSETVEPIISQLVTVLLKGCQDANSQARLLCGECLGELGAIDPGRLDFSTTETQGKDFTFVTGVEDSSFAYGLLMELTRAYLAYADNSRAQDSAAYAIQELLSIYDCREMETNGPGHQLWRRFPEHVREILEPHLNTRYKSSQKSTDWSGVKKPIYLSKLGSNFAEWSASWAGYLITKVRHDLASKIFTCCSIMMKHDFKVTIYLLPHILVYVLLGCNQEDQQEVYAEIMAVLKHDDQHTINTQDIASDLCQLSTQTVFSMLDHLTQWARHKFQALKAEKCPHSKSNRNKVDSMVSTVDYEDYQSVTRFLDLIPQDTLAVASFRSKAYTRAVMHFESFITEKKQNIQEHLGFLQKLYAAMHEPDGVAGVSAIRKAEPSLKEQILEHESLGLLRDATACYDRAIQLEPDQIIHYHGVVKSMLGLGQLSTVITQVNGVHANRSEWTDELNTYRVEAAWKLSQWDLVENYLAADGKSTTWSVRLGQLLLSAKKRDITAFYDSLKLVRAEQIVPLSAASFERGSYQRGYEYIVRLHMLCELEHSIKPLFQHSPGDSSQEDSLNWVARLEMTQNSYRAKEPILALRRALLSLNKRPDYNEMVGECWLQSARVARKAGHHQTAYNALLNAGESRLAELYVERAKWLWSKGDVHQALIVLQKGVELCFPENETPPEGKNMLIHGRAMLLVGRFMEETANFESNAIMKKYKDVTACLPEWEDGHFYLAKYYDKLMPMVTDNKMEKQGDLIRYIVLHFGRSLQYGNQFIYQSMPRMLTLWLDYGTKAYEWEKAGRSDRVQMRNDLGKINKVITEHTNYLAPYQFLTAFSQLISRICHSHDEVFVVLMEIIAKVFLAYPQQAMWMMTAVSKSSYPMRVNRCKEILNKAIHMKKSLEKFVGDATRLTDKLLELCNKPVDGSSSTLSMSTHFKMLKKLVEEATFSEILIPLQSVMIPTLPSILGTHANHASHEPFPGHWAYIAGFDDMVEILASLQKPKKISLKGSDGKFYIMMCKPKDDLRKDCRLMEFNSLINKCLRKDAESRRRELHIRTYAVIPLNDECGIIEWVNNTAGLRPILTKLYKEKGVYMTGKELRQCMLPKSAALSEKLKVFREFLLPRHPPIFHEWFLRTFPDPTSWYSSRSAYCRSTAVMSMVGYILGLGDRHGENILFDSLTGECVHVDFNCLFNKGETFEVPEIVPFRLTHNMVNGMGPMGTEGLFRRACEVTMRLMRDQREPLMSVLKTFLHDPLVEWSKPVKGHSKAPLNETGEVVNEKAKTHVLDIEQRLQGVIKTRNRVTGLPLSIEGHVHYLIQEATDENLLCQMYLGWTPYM

As to `CC(C)S(=O)(=O)c1ccc(-c2cnc(N)c(-c3cc(-c4ccccc4)[nH]n3)n2)cc1` [Compound I-1, 5-(4-(isopropylsulfonyl)phenyl)-3-(5-phenyl-1H-pyrazol-3-yl)pyrazin-2-amine], the Ki stood at 2.86 nM.

With `CC(C)S(=O)(=O)c1ccc(-c2cnc(N)c(-c3ncc(-c4ccccc4)o3)n2)cc1` [Compound I-2, 5-(4-(isopropylsulfonyl)phenyl)-3-(5-phenyloxazol-2-yl)pyrazin-2-amine], the Ki was determined as 4.03 nM.
